What was measured:
[1] = tested on: Human immunodeficiency virus 1; assay: Antiviral activity against HIV-1 IIIB harboring RT L100I mutant infected in human MT4 cells assessed as protection against virus-induced cytotoxicity incubated for 5 days by MTT assay; type: functional, organism-based; conditions: Human immunodeficiency virus 1, IIIB, MT4, 120 h
[2] = tested on: Human immunodeficiency virus 1; assay: Antiviral activity against HIV-1 RES056 infected in human MT4 cells assessed as protection against virus-induced cytotoxicity incubated for 5 days by MTT assay; type: functional, organism-based; conditions: Human immunodeficiency virus 1, RES056, MT4, 120 h
[3] = Antiviral activity against HIV-2 ROD infected in human MT4 cells assessed as protection against virus-induced cytotoxicity incubated for 5 days by MTT assay; type: functional, cell-based; conditions: HIV-2, ISOLATE ROD, MT4, 120 h
[4] = tested on: Human immunodeficiency virus 1; assay: Antiviral activity against HIV-1 IIIB harboring RT Y181C mutant infected in human MT4 cells assessed as protection against virus-induced cytotoxicity incubated for 5 days by MTT assay; type: functional, organism-based; conditions: Human immunodeficiency virus 1, IIIB, MT4, 120 h
[5] = tested on: Human immunodeficiency virus 1; assay: Antiviral activity against HIV-1 IIIB harboring RT E138K mutant infected in human MT4 cells assessed as protection against virus-induced cytotoxicity incubated for 5 days by MTT assay; type: functional, organism-based; conditions: Human immunodeficiency virus 1, IIIB, MT4, 120 h
[6] = tested on: Human immunodeficiency virus 1; assay: Antiviral activity against HIV-1 IIIB infected in human MT4 cells assessed as protection against virus-induced cytotoxicity after 5 days by MTT assay; type: functional, organism-based; conditions: Human immunodeficiency virus 1, IIIB, MT4, 120 h
[7] = tested on: Human immunodeficiency virus 1; assay: Antiviral activity against HIV-1 IIIB harboring RT Y188L mutant infected in human MT4 cells assessed as protection against virus-induced cytotoxicity incubated for 5 days by MTT assay; type: functional, organism-based; conditions: Human immunodeficiency virus 1, IIIB, MT4, 120 h
[8] = tested on: Human immunodeficiency virus 1; assay: Antiviral activity against HIV-1 IIIB harboring RT K103N mutant infected in human MT4 cells assessed as protection against virus-induced cytotoxicity incubated for 5 days by MTT assay; type: functional, organism-based; conditions: Human immunodeficiency virus 1, IIIB, MT4, 120 h
[9] = Cytotoxicity against human MT4 cells assessed as reduction in cell viability after 5 days by MTT assay; type: cell-based; conditions: time 5 day
[10] = tested on: Human immunodeficiency virus 1; assay: Antiviral activity against HIV-1 IIIB harboring RT F227L/V106A mutant infected in human MT4 cells assessed as protection against virus-induced cytotoxicity incubated for 5 days by MTT assay; type: functional, organism-based; conditions: Human immunodeficiency virus 1, IIIB, MT4, 120 h
[11] = tested on: Human immunodeficiency virus 1; assay: Potency index, ratio of Etravirine EC50 to test compound EC50 for antiviral activity against HIV-1 IIIB harboring RT E138K mutant infected in human MT4 cells by MTT assay; type: functional
[12] = tested on: Human immunodeficiency virus 1; assay: Potency index, ratio of Etravirine EC50 to test compound EC50 for antiviral activity against HIV-1 IIIB infected in human MT4 cells by MTT assay; type: functional

SMILES | EC50 [1] [nM] | EC50 [2] [nM] | EC50 [3] [nM] | EC50 [4] [nM] | EC50 [5] [nM] | EC50 [6] [nM] | EC50 [7] [nM] | EC50 [8] [nM] | CC50 at 120 h [9] [nM] | EC50 [10] [nM] | Ratio EC50 [11] | Ratio EC50 [12]
Cc1cc(C#N)cc(C)c1Oc1nc(Nc2ccc(C#N)cc2)ncc1-c1ccc(Cl)cc1 | 216 | 5120 | > 72600 | 250 | 72.6 | 14.4 | 567 | 19.5 | 72600 | 902 |  | 
COc1ccc(-c2cnc(Nc3ccc(C#N)cc3)nc2Oc2c(C)cc(C#N)cc2C)cc1 | 164 | 3770 | > 279000 | 186 | 38.4 | 8 | 143 | 14.6 | > 279000 | 278 |  | 
Cc1cc(C)cc(-c2cnc(Nc3ccc(C#N)cc3)nc2Oc2c(C)cc(C#N)cc2C)c1 | 421 | > 38800 | > 38800 | 833 | 319 | 102 | 2230 | 135 | 39000 | 1110 |  | 
Cc1cc(C#N)cc(C)c1Oc1nc(Nc2ccc(C#N)cc2)ncc1-c1ccoc1 | 19.1 | 395 | > 4980 | 17.9 | 9.3 | 3.3 | 22.6 | 4.4 | 4980 | 32.4 |  | 
Cc1cc(C#N)cc(C)c1Oc1nc(Nc2ccc(C#N)cc2)ncc1-c1ccc2ccccc2c1 | 195 | > 8460 | > 8460 | 356 | 76.9 | 16.8 | 849 | 35.7 | 8460 | 1200 |  | 
Cc1cc(C#N)cc(C)c1Oc1nc(Nc2ccc(C#N)cc2)ncc1-c1cncnc1 | 38.3 | 316 | > 298000 | 32.4 | 11.8 | 4.6 | 73.4 | 5.3 | > 298000 | 325 |  | 
Cc1ccc(-c2cnc(Nc3ccc(C#N)cc3)nc2Oc2c(C)cc(C#N)cc2C)cc1 | 138 | > 10600 | > 26100 | 347 | 57.2 | 11.7 | 267 | 20.3 | 26100 | 707 |  | 
Cc1cc(C#N)cc(C)c1Oc1nc(Nc2ccc(C#N)cc2)ncc1-c1ccc(N)cc1 | 20.5 | > 306 | > 310 | 41.6 | 10.5 | 3.5 | 33.5 | 3.8 | 310 | 44.1 |  | 
Cc1cc(C#N)cc(C)c1Oc1nc(Nc2ccc(C#N)cc2)ncc1-c1ccco1 | 24.8 | 1010 | > 307000 | 30.4 | 9.3 | 3.6 | 37.4 | 4.7 | > 307000 | 75.3 |  | 
Cc1cc(C#N)cc(C)c1Oc1nc(Nc2ccc(C#N)cc2)ncc1-c1ccsc1 | 53.4 | 1440 | > 3920 | 57.1 | 10.7 | 4.1 | 41.8 | 4.3 | 3920 | 64.8 |  | 
Cc1cc(C#N)cc(C)c1Oc1nc(Nc2ccc(C#N)cc2)ncc1-c1ccc(C(F)(F)F)cc1 | 246 | 5460 | > 35000 | 235 | 60.3 | 11.5 | 598 | 25.4 | 35000 | 724 |  | 
Cc1cc(C#N)cc(C)c1Oc1nc(Nc2ccc(C#N)cc2)ncc1-c1cccs1 | 21.1 | 1150 | > 6430 | 36 | 12.9 | 4.9 | 57.5 | 4.8 | 6430 | 269 |  | 
Cc1cc(C#N)cc(C)c1Oc1nc(Nc2ccc(C#N)cc2)ncc1-c1cccnc1 | 24.2 | 300 | > 13500 | 23.5 | 7.1 | 2.5 | 20 | 2.7 | 13500 | 112 | 1.4 | 1.2
Cc1cc(C#N)cc(C)c1Oc1nc(Nc2ccc(C#N)cc2)ncc1-c1cccc2ccccc12 | 2670 | 218000 | > 267000 | 21700 | 5450 | 934 | 10600 | 1820 | > 267000 | 38400 |  | 
Cc1cc(C#N)cc(C)c1Oc1nc(Nc2ccc(C#N)cc2)ncc1-c1ccc(F)cc1 | 159 | 5000 | > 42700 | 113 | 18.5 | 6.2 | 102 | 10.1 | 42700 | 526 |  | 
Cc1cc(C#N)cc(C)c1Oc1nc(Nc2ccc(C#N)cc2)ncc1-c1ccccc1 | 446 | 9130 | > 31800 | 576 | 122 | 24.4 | 222 | 63.5 | 31800 | 881 |  | 
Cc1cc(C#N)cc(C)c1Oc1nc(Nc2ccc(C#N)cc2)ncc1-c1ccc(-c2ccccc2)cc1 | 195 | 8520 | > 253000 | 361 | 112 | 20.5 | 1320 | 29.5 | > 253000 | 1220 |  | 
O=C1Nc2ccc(Cl)cc2[C@@](C#CC2CC2)(C(F)(F)F)O1 [EFAVIRENZ] | 30.8 | 273 |  |  |  |  |  |  | > 6340 |  |  | 
Cc1cc(C#N)cc(C)c1Oc1nc(Nc2ccc(C#N)cc2)nc(N)c1Br [ETRAVIRINE] |  |  |  |  |  |  |  |  | > 4590 |  |  | 
Cc1ccnc2c1NC(=O)c1cccnc1N2C1CC1 [NEVIRAPINE] | 589 | 10700 |  | 3670 | 115 | 133 | 5350 | 2320 | > 15000 | 4310 |  | 
Cc1cn([C@H]2C[C@H](N=[N+]=[N-])[C@@H](CO)O2)c(=O)[nH]c1=O [ZIDOVUDINE] |  | 20.1 |  |  |  |  |  |  | > 7480 |  |  | 
